The subject of series [1] is excised wheat leaf tips (Triticum aestivum cv. Hereward). Briefly: Senescence inhibition on winter wheat leaf segments (retention of chlorophyll). To be noted: 10^−4 mol/L; 96 hours in the dark; activity of kinetin set at 100%. The format is in vivo. On the procedure: Seeds of winter wheat, Triticum aestivum cv. Hereward, were washed under running water for 24 hours and then sown on vermiculite soaked with Knop's solution. They were placed in the grown chamber at 25° C. with a 16/8 hours light period at […]. After 7 days, the first leaf was fully developed and the second leaf had started to grow. A tip section of the first leaf, approximately 35 mm long, was removed from 5 seedlings and trimmed slightly to a combined weight of 100 mg. The basal ends of the five leaf tips were placed in the wells of a microtiter polystyrene plate containing […] of a cytokinin solution each. The entire plate was inserted into a plastic box lined with paper tissues soaked in distilled water to prevent leaf sections from drying out. After 96 hours incubation in the dark at 25° C., the leaves were removed and chlorophyll extracted by heating at 80 C for 10 min in 5 ml of 80% ethanol (v/v). The sample volume was then restored to 5 ml by the addition of 80% ethanol (v/v). The absorbance of the extract was recorded at 665 nm. In addition, chlorophyll extracts from fresh leaves and leaf tips incubated in deionized water were measured. From the obtained data, the concentration with highest activity was selected for each compound tested. Relative activity of the compound at this concentration was calculated (see Table 6 below). The activity obtained for 10^−4 M kinetin (Kin) was set as 100%. The values shown are means of five replicates and the whole experiment was repeated twice.
The compounds to be tested were dissolved in dimethylsulfoxide (DMSO) and the solution brought up to 10^−3 M with distilled water. […] As summarized in Table 6 below, the presence of C-8 substitutent was beneficial and led to increase of antisenescent properties.

Series [2] deals with cytokinin-dependent tobacco callus Nicotiana tabacum L. cv. Wisconsin 38. Kind of series: Plant cell division: growth of cytokinin-dependent tobacco callus. In kind it is cell-based. To be noted: for Activity (%); (s.d.): relative activity at concentration with highest activity, 10^−6 M kinetin set at 100%; for Concentration with highest activity (mol/l): tobacco callus fresh weight increase after four weeks, tested 10^−8 M to 10^−4 M.

The subject of series [3] is normal diploid fibroblasts BJ. Briefly: In vitro cytotoxic activity (Calcein AM), BJ. To be noted: 72 hours, read-out: Cell line tested/IC50 (μmol/L) BJ. In kind it is cell-based, human. The text has this:
(§1) Because toxic compounds negatively influence metabolic processes of cells, many standard cytotoxicity assays are based on measurement of metabolisation rate of various artificial substrates. Resulting product is then quantified, for example, by means of spectrometry. The assays can be easily modified for use in 96-well plates. For evaluation of cytotoxicity of the […] of this invention, a microtiter assay based on quantification of metabolisation of Calcein AM was used. The assay is widely used in drug screening programs and in chemosensitivity testing. In live cells, Calcein AM is enzymatically hydrolysed and accumulation of resulting calcein is manifested by green fluorescence.
(§2) The following human cell lines were used for routine screening of the compounds: normal diploid fibroblasts BJ, T-lymphoblastic leukemia cell line CEM, promyelocytic leukemia cell line HL-60, erytroid leukemia cell line K-562, breast carcinoma cell line MCF-7, osteosarcoma cell line HOS and melanoma cell line G-361. The cells were maintained in Nunc/Corning 80 cm^2 plastic tissue culture flasks and cultured in cell culture medium (DMEM with 5 g/l glucose, 2 mM glutamine, 100 U/ml penicillin, 100 mmg/ml streptomycin, 10% fetal calf serum and sodium bicarbonate). The cell suspensions were prepared and diluted according to the particular cell type and the expected target cell density (2.500-30.000 cells per well based on cell growth characteristics) and pipetted (80 μl) into 96-well plates. Inoculates were allowed a pre-incubation period of 24 hours at 37° C. and 5% CO2 for stabilization. Tested compound was added in total volume of 20 μl of water at time zero. Usually, test compound was evaluated at six 3-fold dilutions. In routine testing, the highest concentration tested was 100 μM, but it could have been adjusted because of limited solubility of a compound. All drug concentrations were tested in triplicates.
(§3) Incubations of cells with the test compounds lasted for 72 hours at 37° C., in 5% CO2 atmosphere and 100% humidity. At the end of incubation period Calcein AM in PBS was added into final concentration of 1 μg/ml. After another 1 hour of incubation fluorescence (FD) was measured with the Labsystem FIA Reader Fluoroscan Ascent (UK). Growth inhibition (GI) was estimated using the following equitation: GI=(mean FDdrug exposed wells−mean FDblank)/(mean FDcontrol wells−mean FDblank)×100%. The GI50 value, the drug concentration causing 50% reduction of Calcein AM conversion, was calculated from the obtained dose response curves.

Series [4] has as its system T-lymphoblastic leukemia cell line CEM. Briefly: In vitro cytotoxic activity (Calcein AM), CEM. Conditions: 72 hours, read-out: Cell line tested/IC50 (μmol/L) CEM. The format is cell-based, human.
Description: as §1, §2, §3

Series [5] relates to erytroid leukemia cell line K-562. Kind of series: In vitro cytotoxic activity (Calcein AM), K-562. The format is cell-based, human. Conditions: 72 hours, read-out: Cell line tested/IC50 (μmol/L) K-562.
Description: as §1, §2, §3

The test system of series [6] is breast carcinoma cell line MCF-7. Kind of series: In vitro cytotoxic activity (Calcein AM), MCF-7. The format is cell-based, human. Conditions: 72 hours, read-out: Cell line tested/IC50 (μmol/L) MCF7.
Description: as §1, §2, §3

Series [7] has as its system osteosarcoma cell line HOS. Kind of series: In vitro cytotoxic activity (Calcein AM), HOS. In kind it is cell-based, human. Conditions: 72 hours, read-out: Cell line tested/IC50 (μmol/L) HOS.
Description: as §1, §2, §3

The subject of a further series is melanoma cell line G-361. Kind of series: In vitro cytotoxic activity (Calcein AM), G-361. In kind it is cell-based, human. Conditions: 72 hours, read-out: Cell line tested/IC50 (μmol/L) G-361.
Description: as §1, §2, §3

Series [8] concerns Human diploid fibroblast BJ. Kind of series: In vitro cytotoxic activity (MTT). The format is cell-based. To be noted: 72 hours incubation; concentration causing 20% decrease in mitochondrial dehydrogenase activity. On the procedure:
MTT (metabolic tetrazolium toxicity) assay is a standard colorimetric assay for evaluation of cytotoxicity. Mitochondrial dehydrogenase activity converts yellow MTT into violet formazan which is measured by means of spectrometry.
Human diploid fibroblast BJ (passage 18-22) were seeded into 96-well plate (5.000 cells per well). After 6 hours cultivation medium (DMEM with 5 g/l glucose, 2 mM glutamine, 100 U/ml penicillin, 100 mmg/ml streptomycin, 10% fetal calf serum and sodium bicarbonate) was replaced with the cultivation medium containing test compounds in concentration range of 0-200 µM. Highest concentration was adjusted if the solubility of the compound was limiting. Every concentration was tested in pentaplicate. MTT was added to the cells after 72 hours incubation (final concentration 0.5 mg/ml) and incubation continued for another 3 hours. MTT was solubilised by DMSO and absorbance at 570 nm was measured. Growth inhibition (GI) was estimated using the following equitation: GI=(mean A drug exposed wells−mean Ablank/mean Acontrol wells−mean Ablank)×100%. The GI20 value, the drug concentration causing 20% decrease in mitochondrial dehydrogenase activity, was calculated from the obtained dose response curves.

In series [9] the test system is Salmonella typhimurium histidien auxotrophs TA98 and TA100. Briefly: Ames test. To be noted: 2.5 to 5000 μg/plate; presence and absence of Aroclor-induced rat liver S9. The format is cell-based. The method, boiled down:
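Strains TA98 and TA100 exposed to compounds in DMSO at 2.5, 5.0, 15, 50, 500, 1500 and 5000 μg/plate following standard Ames/Maron protocols.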
In general terms: In the Ames test, an excess of revertant colonies over the control signals mutagenicity.

Take `Fc1cccc(CNc2ncnc3c2nc(Cl)n3C2CCCCO2)c1` (stereo not shown) [Compound 7]: the “Activity (%) (s.d.), retention of chlorophyll” value in series [1] is reported as 110 (±2) %. Moreover, the “Activity (%); (s.d.)” value in series [2] is 114 (±5) %. In addition, the “Concentration with highest activity (mol/l)” value (“Concentration” below) in [2] was 10^−6-10^−4 mol/l. In addition, the IC50 in series [3] was above 100 µmol/L; in series [4] it was above 100 µmol/L; in [5] it was above 50 µmol/L; in series [6] it was above 100 µmol/L; in [7] it was above 100 µmol/L; in the series with melanoma cell line G-361 it was above 100 µmol/L. In series [8], the “GI20” value is above 200 µM.
As for `COc1nc2c(NCc3cccc(F)c3)ncnc2n1C1CCCCO1` (stereo not shown) [Compound 130], the “Activity (%); (s.d.)” value in series [2] is reported as 108 (±3) %. The “Concentration” value in series [2] is reported as 10^−6-10^−4 mol/l. Besides, the IC50 (in series [3]; in series [4]; in [5]; in series [6]; in series [7]; with melanoma cell line G-361) was above 50 µmol/L throughout. In addition, in series [8], the “GI20” value is above 100 µM. Besides, the mutagenic response result in [9] is reported as “no positive mutagenic responses”.
Consider `CSc1nc2c(NC/C=C(\C)CO)ncnc2n1C1CCCCO1` (stereo not shown) [Compound 146], for which, in series [2], the “Activity (%); (s.d.)” value is reported as 108 (±5) %. For the same molecule, in series [2], the “Concentration” value is listed as 10^−6-10^−5 mol/l. Besides, the IC50 (in series [3]; in series [4]; in series [5]; in series [6]; in series [7]; in the series on melanoma cell line G-361) was above 50 µmol/L each time. The “GI20” value in [8] was above 100 µM. Besides, in [9], the mutagenic response entry is listed as “no positive mutagenic responses”.
In the case of `CSc1nc2c(NCC=C(C)C)ncnc2n1C1CCCCO1` (stereo not shown) [Compound 147], in series [2], the “Activity (%); (s.d.)” value is listed as 112 (±2) %. Also, the “Concentration” value in [2] was 10^−6-10^−4 mol/l. Besides, the IC50 (in series [3]; in series [4]; in series [5]; in [6]; in series [7]; in the series with melanoma cell line G-361) was above 50 µmol/L in each case. Besides, the “GI20” value in series [8] was above 100 µM. Also, in series [9], the mutagenic response entry was “no positive mutagenic responses”.
Turning to `CSc1nc2c(NCc3cccc(O)c3)ncnc2n1C1CCCCO1` (stereo not shown) [Compound 149], the “Activity (%); (s.d.)” value in [2] was 107 (±1) %. Besides, the “Concentration” value in series [2] is given as 10^−6-10^−4 mol/l. The IC50 (in series [3]; in series [4]; in series [5]; in [6]; in [7]; in the series on melanoma cell line G-361) was above 50 µmol/L throughout. Also, the “GI20” value in [8] was above 100 µM. Besides, in series [9], the mutagenic response entry is “no positive mutagenic responses”.
As for `COc1cccc(CNc2ncnc3c2nc(SC)n3C2CCCCO2)c1` (stereo not shown) [Compound 150], the “Activity (%); (s.d.)” value in series [2] is given as 105 (±2) %. The “Concentration” value in series [2] is listed as 10^−6-10^−5 mol/l. The IC50 (in [3]; in [4]; in [5]; in series [6]; in series [7]; with melanoma cell line G-361) was above 50 µmol/L each time. For the same molecule, in series [8], the “GI20” value was above 100 µM. The mutagenic response result in series [9] is listed as “no positive mutagenic responses”.
With `CSc1nc2c(NCc3cccc(F)c3)ncnc2n1C1CCCCO1` (stereo not shown) [Compound 151], in series [2], the “Activity (%); (s.d.)” value is 109 (±5) %. Besides, in series [2], the “Concentration” value is listed as 10^−6-10^−4 mol/l. Also, the IC50 (in series [3]; in series [4]; in series [5]; in series [6]; in [7]; in the series on melanoma cell line G-361) was above 50 µmol/L throughout. Moreover, in [8], the “GI20” value was above 100 µM. The mutagenic response result in series [9] is on record as “no positive mutagenic responses”.
In the case of `COc1nc2c(NCC=C(C)CO)ncnc2n1C1CCCO1` (stereo not shown) [Compound 208], the “Activity (%); (s.d.)” value in [2] is listed as 119 (±7) %. In addition, in [2], the “Concentration” value is 10^−6-10^−4 mol/l. Besides, the IC50 (in series [3]; in series [4]; in series [5]; in series [6]; in series [7]; with melanoma cell line G-361) was above 50 µmol/L each time. Besides, the “GI20” value in series [8] was above 100 µM. In addition, the mutagenic response result in series [9] is given as “no positive mutagenic responses”.
As for `CSc1nc2c(NCc3ccco3)ncnc2n1C1CCCO1` (stereo not shown) [Compound 216], the “Activity (%); (s.d.)” value in [2] was 103 (±4) %. Moreover, the “Concentration” value in series [2] was 10^−6-10^−4 mol/l. Also, the IC50 (in [3]; in series [4]; in series [5]; in [6]; in [7]; in the series on melanoma cell line G-361) was above 50 µmol/L each time. In addition, the “GI20” value in series [8] was above 100 µM. Moreover, in [9], the mutagenic response entry was “no positive mutagenic responses”.
For the molecule `CSc1nc2c(NCC=C(C)C)ncnc2n1C1CCCO1` (stereo not shown) [Compound 218], the “Activity (%); (s.d.)” value in series [2] is 113 (±5) %. The “Concentration” value in series [2] is 10^−6-10^−4 mol/l. For the same molecule, the IC50 (in [3]; in series [4]; in series [5]; in series [6]; in series [7]; in the series on melanoma cell line G-361) was above 50 µmol/L each time. Also, the “GI20” value in series [8] was above 100 µM. Moreover, the mutagenic response entry in series [9] is reported as “no positive mutagenic responses”.

The values are drawn from patent US10093675B2, “6,8-disubstituted-9-(heterocyclyl)purines, compositions containing these derivatives and their use in cosmetic and medicinal applications” (USTAV EXPERIMENTALNI BOTANIKY AV CR, V.V.I., priority 2014, dated 2018).
